Assay results as given in PubChem BioAssay AID2060484 (Molecular Pharmacology Branch, DTP, NCI, 2025).

Test system: SUM149PT spheroids with HUVEC/MSC, viability
Experiment: Anticancer human tumor SUM149PT cell line growth inhibition [GQUAD];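 note: spheroids exposed to drugs for seven days before readout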;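 for viability, T/C: percent viability relative to DMSO vehicle control taken as 100%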
Settings: for IC50: curve of first compound; for viability, T/C: stronger effect = lower value
Source text: DNA G-quadruplex Stabilizer Agents in Combinations in Complex Spheroids
A high-throughput screen of multi-cell type tumor spheroids was designed to identify active combinations of DNA G-quadruplex stabilizer agents and targeted small molecules. Complex spheroids include a stromal component modeled by human endothelial cells (HUVEC) and fibroblasts modeled by human mesenchymal stem cells (MSCs). The concentration ranges selected for each drug and investigational agent were based upon clinically achievable concentrations if the clinical Cmax of the agent was known.
Compounds. The drugs and investigational agents: pidnarulex (CX-5461; NSC782164), APTO-253 (NSC789042), BRACO-19 (NSC847499), peposertib (NSC802822), ceralasertib (NSC780249), elimusertib (NSC800525), camonsertib (NSC841442), AZD-1390 (NSC803789), olaparib (NSC753686), talazoparib (NSC767125), ART-558 (NSC835418), sotorasib (NSC818433), MRTX-1133 (NSC836407), SN-38 (NSC673596), topotecan (NSC609699), etoposide (NSC141540), doxorubicin (NSC123127), gemcitabine (NSC613327), 5-fluorouracil (NSC19893), paclitaxel (NSC125973), vemurafenib (NSC761431), panobinostat (NSC761190), R-306465 (JNJ-16241199; NSC773264), adavosertib (NSC754352), TP-3654 (NSC805149), carboplatin (NSC241240), KSQ-4279 (NSC840948), and staurosporine (NSC755774) were obtained from the National Cancer Institute (NCI) Developmental Therapeutics Program Chemical Repository (34). The FDA-approved anticancer drug set is available from the NCI Developmental Therapeutics Program. […] The stock solutions were prepared in dimethyl sulfoxide (DMSO, Sigma-Aldrich, St. Louis, MO, cat. D2650) at 800-fold the tested concentration and stored at -70 degrees C prior to their use. All drugs and investigational agents were tested over a range starting from a high concentration at or near the clinical Cmax and decreasing in half-log increments. If the clinical Cmax for an agent had not been determined, the highest concentration tested was 10 microM.
2.3 Cell Culture. All cells were maintained in an incubator at 37 degrees C and 5% CO2 with 95% humidity. The PDC lines were cultured according to standard operating procedures established by the NCI PDMR. All PDCs were thawed and cultured in Matrigel-coated flasks prepared with a working solution of 1X Ham's F-12 nutrient mix, without supplementation (Invitrogen, cat. 11765054), 100 U/mL penicillin-streptomycin (Invitrogen, cat. 15140122), and 2.5% Matrigel (Corning Inc., cat. 354248) for the first three passages. The 857933-349-R-J2-PDC line was cultured in 6C/Colon 1B media, which includes advanced DMEM/F-12 (Thermo Fisher Scientific, cat. 12634028), 10 mM HEPES (Thermo Fisher Scientific, cat. 15630080), 1X GlutaMAX supplement (Thermo Fisher Scientific, cat. 35050061), 0.1 mg/mL primocin (InvivoGen, cat. ant-pm-2), 10% defined fetal bovine serum, heat inactivated (HyClone Laboratories Inc., cat. SH30070.03HI), 50% L-WRN conditioned media (ATCC, cat. CRL-3276), 1.25 mM N-Acetyl-L-cysteine (Sigma-Aldrich, cat. A9165), 10 mM nicotinamide (Sigma-Aldrich, cat. N0636), 1X B-27 supplement (Thermo Fisher Scientific, cat. 17504044), 1X N-2 supplement (Thermo Fisher Scientific, cat. 17502048), 10 microM Y-27632 dihydrochloride (Tocris Bioscience, cat. 1254), and 50 ng/mL human EGF recombinant protein (Thermo Fisher Scientific, cat. PHG0311). The 485176-168-R4-J1-PDC line was cultured in Panc media, which includes all 6C/Colon 1B media components plus 100 ng/mL human FGF-10 (Thermo Fisher Scientific, cat. 100-26), 500 nM SB-431542 (Selleckchem, cat. S1067), and gastrin (Tocris, cat. 3006).
[…]

[1] = second compound 0.0316 µM, first compound 0.0316 µM
[2] = second compound 0.0316 µM, first compound 0.1 µM
[3] = second compound 0.0316 µM, first compound 0.316 µM
[4] = second compound 0.0316 µM, first compound 1 µM
[5] = second compound 0.0316 µM, first compound 3.16 µM
[6] = second compound 0.0316 µM, first compound 10 µM
[7] = second compound 0.1 µM, first compound 0.0316 µM
[8] = second compound 0.1 µM, first compound 0.1 µM
[9] = second compound 0.1 µM, first compound 0.316 µM
[10] = second compound 0.1 µM, first compound 1 µM
[11] = second compound 0.1 µM, first compound 3.16 µM
[12] = second compound 0.1 µM, first compound 10 µM
[13] = second compound 0.316 µM, first compound 0.0316 µM
[14] = second compound 0.316 µM, first compound 0.1 µM
[15] = second compound 0.316 µM, first compound 0.316 µM
[16] = second compound 0.316 µM, first compound 1 µM
[17] = second compound 0.316 µM, first compound 3.16 µM
[18] = second compound 0.316 µM, first compound 10 µM
[19] = second compound 1 µM, first compound 0.0316 µM
[20] = second compound 1 µM, first compound 0.1 µM
[21] = second compound 1 µM, first compound 0.316 µM
[22] = second compound 1 µM, first compound 1 µM
[23] = second compound 1 µM, first compound 3.16 µM
[24] = second compound 1 µM, first compound 10 µM
[25] = second compound 3.16 µM, first compound 0.0316 µM
[26] = second compound 3.16 µM, first compound 0.1 µM
[27] = second compound 3.16 µM, first compound 0.316 µM
[28] = second compound 3.16 µM, first compound 1 µM
[29] = second compound 3.16 µM, first compound 3.16 µM
[30] = second compound 3.16 µM, first compound 10 µM
[31] = second compound 10 µM, first compound 0.0316 µM
[32] = second compound 10 µM, first compound 0.1 µM
[33] = second compound 10 µM, first compound 0.316 µM
[34] = second compound 10 µM, first compound 1 µM
[35] = second compound 10 µM, first compound 3.16 µM
[36] = second compound 10 µM, first compound 10 µM

C#Cc1c(F)ccc2cc(O)cc(-c3ncc4c(N5CC6CCC(C5)N6)nc(OCC56CCCN5CC(F)C6)nc4c3F)c12 (centres undefined) + CN(C)c1ccc(Nc2c3ccc(NC(=O)CCN4CCCC4)cc3nc3cc(NC(=O)CCN4CCCC4)ccc23)cc1 was tested, and the IC50 (second compound 0.0316 µM) was 5270 nM, the IC50 (second compound 0.1 µM) was 7470 nM and the IC50 (second compound 0.316 µM) was 2450 nM. It also gave an IC50 (second compound 1 µM) of 4570 nM, an IC50 (second compound 3.16 µM) of 1570 nM and an IC50 (second compound 10 µM) of 1710 nM. The viability, T/C [1] was 100%, the viability, T/C [2] was 93.3% and the viability, T/C [3] was 73.5%. The viability, T/C [4] was 73.8%, the viability, T/C [5] was 57.2% and the viability, T/C [6] was 40.8%. The viability, T/C [7] was 107%, the viability, T/C [8] was 102% and the viability, T/C [9] was 88.1%. For the same compound, the viability, T/C [10] was 66.3%, the viability, T/C [11] was 58.1% and the viability, T/C [12] was 46.6%. For the same compound, the viability, T/C [13] was 93.6%, the viability, T/C [14] was 83.9% and the viability, T/C [15] was 68.7%. The viability, T/C [16] was 57.1%, the viability, T/C [17] was 49.6% and the viability, T/C [18] was 38.6%. It also gave a viability, T/C [19] of 75.5%, a viability, T/C [20] of 82.8% and a viability, T/C [21] of 77.2%. The viability, T/C [22] was 61.3%, the viability, T/C [23] was 61.1% and the viability, T/C [24] was 34.1%. For the same compound, the viability, T/C [25] was 88.2%, the viability, T/C [26] was 81.6% and the viability, T/C [27] was 73.3%. It also gave a viability, T/C [28] of 51.3%, a viability, T/C [29] of 45.2% and a viability, T/C [30] of 31%. It also gave a viability, T/C [31] of 80.7%, a viability, T/C [32] of 86.6% and a viability, T/C [33] of 62.8%. For the same compound, the viability, T/C [34] was 56.3%, the viability, T/C [35] was 45% and the viability, T/C [36] was 19%.
COc1ccc([C@@H](O)c2cc(-c3ncnc4cc(N5CCOCC5)ccc34)c(F)cc2Cl)nn1 + CN(C)c1ccc(Nc2c3ccc(NC(=O)CCN4CCCC4)cc3nc3cc(NC(=O)CCN4CCCC4)ccc23)cc1 showed an IC50 (second compound 0.0316 µM) of 1870 nM, an IC50 (second compound 0.1 µM) of 1170 nM and an IC50 (second compound 0.316 µM) of 1160 nM. For the same compound, the IC50 (second compound 1 µM) was 1020 nM, the IC50 (second compound 3.16 µM) was 960 nM and the IC50 (second compound 10 µM) was 844 nM. The viability, T/C [1] was 103%, the viability, T/C [2] was 86% and the viability, T/C [3] was 73.1%. It also gave a viability, T/C [4] of 63%, a viability, T/C [5] of 38.2% and a viability, T/C [6] of 32.1%. It also gave a viability, T/C [7] of 89.1%, a viability, T/C [8] of 92.2% and a viability, T/C [9] of 80.6%. The viability, T/C [10] was 52.4%, the viability, T/C [11] was 34.3% and the viability, T/C [12] was 28.8%. It also gave a viability, T/C [13] of 88.1%, a viability, T/C [14] of 87.4% and a viability, T/C [15] of 71.5%. It also gave a viability, T/C [16] of 53.7%, a viability, T/C [17] of 34.3% and a viability, T/C [18] of 29.1%. The viability, T/C [19] was 91.5%, the viability, T/C [20] was 82.8% and the viability, T/C [21] was 77.2%. For the same compound, the viability, T/C [22] was 50.3%, the viability, T/C [23] was 31.8% and the viability, T/C [24] was 29.2%. For the same compound, the viability, T/C [25] was 82.6%, the viability, T/C [26] was 80% and the viability, T/C [27] was 75.3%. For the same compound, the viability, T/C [28] was 46.8%, the viability, T/C [29] was 33.7% and the viability, T/C [30] was 22.9%. For the same compound, the viability, T/C [31] was 79.9%, the viability, T/C [32] was 78.8% and the viability, T/C [33] was 73.1%. The viability, T/C [34] was 44.2%, the viability, T/C [35] was 31.4% and the viability, T/C [36] was 20.7%.
